Laboratory results published in US9387209B2, “Histone deacetylases (HDACs) inhibitors” (ANNJI PHARMACEUTICAL CO., LTD., priority 2012, dated 2016).

Key:
[1] = molecular target: T1, human histone deacetylases (HDAC) 8 (Homo sapiens, UniProt Q9BY41); assay: HDAC enzymatic assay, HDAC8; format: biochemical; conditions: HDAC8; read-out: IC50 HDAC8 (grading)
T1 sequence (Q9BY41 1-377): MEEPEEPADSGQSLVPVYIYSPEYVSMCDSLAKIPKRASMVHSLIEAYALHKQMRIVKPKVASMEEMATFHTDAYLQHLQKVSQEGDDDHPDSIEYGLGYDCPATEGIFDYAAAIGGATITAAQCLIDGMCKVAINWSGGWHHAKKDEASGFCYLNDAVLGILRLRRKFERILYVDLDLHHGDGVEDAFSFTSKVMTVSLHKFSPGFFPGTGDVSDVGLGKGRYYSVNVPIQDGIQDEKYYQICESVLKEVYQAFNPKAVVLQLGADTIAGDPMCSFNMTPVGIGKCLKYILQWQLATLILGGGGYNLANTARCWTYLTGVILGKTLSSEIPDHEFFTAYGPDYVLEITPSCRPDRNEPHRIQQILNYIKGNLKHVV

SH-SY5Y cells [2] = assay: Neurite synaptic uptake activity (FM1-43), SH-SY5Y; format: cell-based; conditions: Homo sapiens, NGF positive control taken as 100%, read-out: uptake of dye FM1-43 EC50
Method: (§1) Neurite Synaptic Uptake Activity Analysis.
(§2) The effects of compounds on the neuronal synapse uptake of fluorescent indicator FM1-43 were assayed. The uptake of the dye indicated the synaptic function of the neurites. PC 12 and SH-SY5Y cells were used. Cells in experimental groups were treated with a test compound and FM1-43; Cells in positive control were treated with NGF and FM1-43; Cells in negative control were treated with a vehicle and FM1-43. The fluorescence in the positive control were taken as 100%.

[3] = molecular target: T2, zinc-mediated β-amyloid aggregation (Homo sapiens, UniProt P05067); assay: Anti-amyloid aggregation assay, CR (Congo red); format: biochemical; conditions: detected by CR
Method: (§3) Anti-Amyloid Aggregation Assay.
(§4) The effects of compounds on inhibition of β-amyloid aggregation were assayed. The levels of β-amyloid aggregates were determined by thioflavin S, BCA or CR assays (Tables 1). Thioflavin S, and Congo red are for in vitro staining of aggregated β-amyloid. Bicinchoninic acid (BCA) assay determines the total protein level or concentration.

[4] = molecular target: human histone deacetylases (HDAC) 1 (Homo sapiens, UniProt Q13547); assay: HDAC enzymatic assay, HDAC1; format: biochemical; conditions: read-out: IC50 HDAC1 (grading)
PC 12 cells [5] = assay: Neurite synaptic uptake activity (FM1-43), PC 12; format: cell-based; conditions: Rattus norvegicus, NGF positive control taken as 100%, read-out: uptake of dye FM1-43 EC50
Method: as §1, §2

[6] = molecular target: T3, human histone deacetylases (HDAC) 6 (Homo sapiens, UniProt Q9UBN7); assay: HDAC enzymatic assay, HDAC6; format: biochemical; conditions: for IC50: HDAC6, read-out: IC50 HDAC6 (grading); for selective inhibitions on HDAC6: HDAC6 versus other HDACs
T3 sequence (Q9UBN7 1-1215): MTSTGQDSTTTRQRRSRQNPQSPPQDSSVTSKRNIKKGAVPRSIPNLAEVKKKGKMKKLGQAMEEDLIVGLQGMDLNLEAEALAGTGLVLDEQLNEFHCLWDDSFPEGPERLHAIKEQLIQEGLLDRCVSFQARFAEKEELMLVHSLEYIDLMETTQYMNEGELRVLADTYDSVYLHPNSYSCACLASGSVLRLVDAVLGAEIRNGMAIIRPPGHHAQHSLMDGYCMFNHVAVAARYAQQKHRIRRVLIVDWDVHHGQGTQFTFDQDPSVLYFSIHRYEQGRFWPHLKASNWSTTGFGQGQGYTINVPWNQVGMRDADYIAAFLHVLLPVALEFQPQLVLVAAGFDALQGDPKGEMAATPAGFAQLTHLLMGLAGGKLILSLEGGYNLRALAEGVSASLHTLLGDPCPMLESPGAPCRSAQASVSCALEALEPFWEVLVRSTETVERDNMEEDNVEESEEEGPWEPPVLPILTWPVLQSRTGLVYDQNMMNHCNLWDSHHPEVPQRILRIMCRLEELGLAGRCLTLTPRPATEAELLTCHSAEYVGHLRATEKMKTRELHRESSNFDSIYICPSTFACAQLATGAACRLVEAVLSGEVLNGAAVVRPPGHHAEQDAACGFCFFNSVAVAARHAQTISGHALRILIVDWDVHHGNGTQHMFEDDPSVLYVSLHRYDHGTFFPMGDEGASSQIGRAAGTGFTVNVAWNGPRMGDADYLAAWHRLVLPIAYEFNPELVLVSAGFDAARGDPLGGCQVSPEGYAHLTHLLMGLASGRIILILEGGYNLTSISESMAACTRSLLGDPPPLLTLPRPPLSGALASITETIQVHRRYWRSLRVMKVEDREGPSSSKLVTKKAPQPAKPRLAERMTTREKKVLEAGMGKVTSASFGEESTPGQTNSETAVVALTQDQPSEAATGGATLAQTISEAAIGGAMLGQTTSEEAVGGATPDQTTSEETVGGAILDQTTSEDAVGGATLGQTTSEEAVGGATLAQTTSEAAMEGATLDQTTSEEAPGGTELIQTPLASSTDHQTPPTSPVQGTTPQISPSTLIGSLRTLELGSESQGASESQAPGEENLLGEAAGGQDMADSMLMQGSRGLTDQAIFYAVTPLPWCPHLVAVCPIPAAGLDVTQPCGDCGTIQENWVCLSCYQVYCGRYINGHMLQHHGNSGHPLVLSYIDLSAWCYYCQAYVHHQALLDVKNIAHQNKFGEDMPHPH

[7] = molecular target: T2, zinc-mediated β-amyloid aggregation; assay: Anti-amyloid aggregation assay, BCA; format: biochemical; conditions: detected by BCA
Method: as §3, §4

[8] = molecular target: T2, zinc-mediated β-amyloid aggregation; assay: Anti-amyloid aggregation assay, thioflavin S; format: biochemical; conditions: detected by thioflavin S
Method: as §3, §4

[9] = MTT or SRB assay for cytotoxicity, PANC1; format: cell-based; conditions: human, PANC-1 cells, read-out: cytotoxicity IC50 (grading) PANC1
Method: (§5) MTT or SRB Assays for Cytotoxicities of HDAC Inhibitors.
(§6) These compounds were assayed for cytotoxicities to the following cells: A549 cells (adenocarcinomic human alveolar basal epithelial cells), HCT-116 cells (human colon carcinoma cells). PANC-1 cells (human pancreatic carcinoma, epithelial-like cell line) and HepG2 cells (human liver hepatocellular carcinoma cell line), neuronal cells PC12 (rat pheochromocytoma cell line) and SH-SY5Y (human neuroblastoma cell line). MTT (3-[4,5-dimethylthiazol-2-yl]2,5-diphenyl-tetrazolium bromide) reduction was collaborated by using trypan blue exclusion assay.

[10] = MTT or SRB assay for cytotoxicity, HepG2; format: cell-based; conditions: human, HepG2 cells, read-out: cytotoxicity IC50 (grading) HepG2
Method: as §5, §6

[11] = MTT or SRB assay for cytotoxicity, A549; format: cell-based; conditions: human, A549 cells, read-out: cytotoxicity IC50 (grading) A549
Method: as §5, §6

[12] = MTT or SRB assay for cytotoxicity, HCT116; format: cell-based; conditions: human, HCT-116 cells, read-out: cytotoxicity IC50 (grading) HCT116
Method: as §5, §6

SH-SY5Y cells [13] = assay: Neurite outgrowth assay, SH-SY5Y; format: cell-based; conditions: Homo sapiens
PC 12 cells [14] = assay: Neurite outgrowth assay, PC 12; format: cell-based; conditions: Rattus norvegicus

T2 sequence (P05067 672-711 limits assumed): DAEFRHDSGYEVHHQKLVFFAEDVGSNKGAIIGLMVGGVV
human histone deacetylases (HDAC) 1, sequence (Q13547 whole entry): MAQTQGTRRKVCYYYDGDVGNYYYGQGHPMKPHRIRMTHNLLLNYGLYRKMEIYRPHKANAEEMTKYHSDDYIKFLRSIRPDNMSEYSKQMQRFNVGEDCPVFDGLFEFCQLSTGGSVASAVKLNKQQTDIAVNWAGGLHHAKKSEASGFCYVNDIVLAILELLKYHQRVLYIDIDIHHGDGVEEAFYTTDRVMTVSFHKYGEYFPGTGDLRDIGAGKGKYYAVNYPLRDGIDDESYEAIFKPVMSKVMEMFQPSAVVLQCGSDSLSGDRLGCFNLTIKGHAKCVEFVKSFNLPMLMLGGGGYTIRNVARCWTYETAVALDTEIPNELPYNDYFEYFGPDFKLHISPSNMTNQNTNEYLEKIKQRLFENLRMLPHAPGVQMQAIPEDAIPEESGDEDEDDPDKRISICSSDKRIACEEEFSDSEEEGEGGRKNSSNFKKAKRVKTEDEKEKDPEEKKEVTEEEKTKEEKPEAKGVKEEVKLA

| IC50 [1] [µM] | EC50 (SH-SY5Y cells [2]) [µM] | IC50 [3] [µM] | IC50 [4] [µM] | EC50 (PC 12 cells [5]) [µM] | IC50 [6] [µM] | IC50 [7] [µM] | selective inhibitions on HDAC6 [6] | IC50 [8] [µM] | EC50 (SH-SY5Y cells [13]) [µM] | melting point | Compound | IC50 [9] [µM] | IC50 [10] [µM] | IC50 [11] [µM] | IC50 [12] [µM] | EC50 (PC 12 cells [14]) [µM] |
| --- | --- | --- | --- | --- | --- | --- | --- | --- | --- | --- | --- | --- | --- | --- | --- | --- |
| 0.1 to 1 | – | – | 1 to 10 | 0.78 ± 0.49 | < 0.1 | – | selective inhibitions on HDAC6 | – | – | 183 to 185 °C (dec.) | CCc1nc2cc(F)c(/C=C/C(=O)NO)cc2c(=O)n1CCc1ccccc1 [Compound 3a, (2E)-3-(2-ethyl-7-fluoro-3,4-dihydro-4-oxo-3-phenethylquinazolin-6-yl)-N-hydroxyacrylamide] | ≥ 10 | ≥ 10 | 1 to 10 | ≥ 10 | – |
| 1 to 10 | 7.63 ± 0.74 | – | > 10 | 10.7 ± 1.26 | 0.1 to 1 | – | – | – | 7.63 ± 0.74 | – | CCc1nc2cc(Cl)c(/C=C/C(=O)NO)cc2c(=O)n1CCc1ccccc1 [Compound 3b, (2E)-3-(7-chloro-2-ethyl-3,4-dihydro-4-oxo-3-phenethylquinazolin-6-yl)-N-hydroxyacrylamide] | 0.1 to 1 | ≥ 10 | 1 to 10 | ≥ 10 | 10.7 ± 1.26 |
| – | – | – | – | – | < 0.1 | – | selective inhibitions on HDAC6 | – | – | 181 to 183 °C (dec.) | CCc1nc2cc(Cc3ccc(C(=O)NO)cc3)ccc2c(=O)n1CCc1ccccc1 [Compound 4b, 4-((2-ethyl-3,4-dihydro-4-oxo-3-phenethylquinazolin-7-yl)methyl)-N-hydroxybenzamide] | 1 to 10 | 0.1 to 1 | 1 to 10 | 1 to 10 | – |
| – | – | – | – | – | – | – | – | – | – | 202 to 204 °C (dec.) | CCc1nc2c(-c3ccc(C(=O)NO)cc3)cccc2c(=O)n1CCc1ccccc1 [Compound 5a, 4-(2-ethyl-3,4-dihydro-4-oxo-3-phenethylquinazolin-8-yl)-N-hydroxybenzamide] | 1 to 10 | ≥ 10 | ≥ 10 | ≥ 10 | – |

The next lines start with the compound.

| Compound | IC50 [1] [µM] | EC50 (SH-SY5Y cells [2]) [µM] | IC50 [3] [µM] | IC50 [4] [µM] | EC50 (PC 12 cells [5]) [µM] | IC50 [6] [µM] | IC50 [7] [µM] | selective inhibitions on HDAC6 [6] | IC50 [8] [µM] | EC50 (SH-SY5Y cells [13]) [µM] | melting point | IC50 [9] [µM] | IC50 [10] [µM] | IC50 [11] [µM] | IC50 [12] [µM] | EC50 (PC 12 cells [14]) [µM] |
| --- | --- | --- | --- | --- | --- | --- | --- | --- | --- | --- | --- | --- | --- | --- | --- | --- |
| Cc1nc2cccc(/C=C/C(=O)NO)c2c(=O)n1-c1ccccc1 [Compound 1a, (2E)-3-(3,4-dihydro-2-methyl-4-oxo-3-phenylquinazolin-5-yl)-N-hydroxyacrylamide] | 1 to 10 | 14.7 ± 1.58 | 30.2 | > 10 | 8.15 ± 0.39 | < 0.1 | 10.1 | – | – | – | – | – | – | – | – | – |
| Cc1nc2ccc(/C=C/C(=O)NO)cc2c(=O)n1-c1ccccc1 [Compound 1b, (2E)-3-(3,4-dihydro-2-methyl-4-oxo-3-phenylquinazolin-6-yl)-N-hydroxyacrylamide] | 0.1 to 1 | – | 4.8 | 1 to 10 | – | < 0.1 | 10.1 | selective inhibitions on HDAC6 | – | – | – | – | – | – | – | – |
| Cc1nc2c(/C=C/C(=O)NO)cccc2c(=O)n1-c1ccccc1 [Compound 1d, (2E)-3-(3,4-dihydro-2-methyl-4-oxo-3-phenylquinazolin-8-yl)-N-hydroxyacrylamide] | 0.1 to 1 | 8.03 ± 0.53 | 14.5 | > 10 | 7.81 ± 0.65 | 0.1 to 1 | 11.7 | – | – | – | – | – | – | – | – | – |
| Cc1nc2cc(/C=C/C(=O)NO)ccc2c(=O)n1CCc1c[nH]c2ccccc12 [Compound 1g, (2E)-3-(3-(2-(1H-indol-3-yl)ethyl)-3,4-dihydro-2-methyl-4-oxoquinazolin-7-yl)-N-hydroxyacrylamide] | 1 to 10 | – | 15.5 | 0.1 to 1 | – | < 0.1 | 11.1 | selective inhibitions on HDAC6 | 7.4 | – | – | – | – | – | – | – |
| CCc1nc2cc(/C=C/C(=O)NO)ccc2c(=O)n1CCc1ccc(OC)cc1 [Compound 1m] | 0.1 to 1 | 20.6 ± 2.51 | – | 1 to 10 | 20.6 ± 3.12 | < 0.1 | – | – | – | 20.6 ± 2.51 | 215 to 217 °C | 1 to 10 | 1 to 10 | 1 to 10 | 1 to 10 | 20.6 ± 3.12 |
| CCc1nc2cc(/C=C/C(=O)NO)ccc2c(=O)n1CCc1ccc(F)cc1 [Compound 1n, (2E)-3-(3-(4-fluorophenethyl)-2-ethyl-3,4-dihydro-4-oxoquinazolin-7-yl)-N-hydroxyacrylamide] | 0.1 to 1 | 22.2 ± 2.01 | – | 1 to 10 | 13.9 ± 0.94 | < 0.1 | – | – | – | 22.2 ± 2.01 | 195 to 197 °C (dec.) | 1 to 10 | 1 to 10 | 1 to 10 | 1 to 10 | 13.9 ± 0.94 |
